Results: patent US9051295B2, “1-substituted indazole derivative” (Dainippon Sumitomo Pharma Co., Ltd., priority 2012, dated 2015)

The molecules below were run on Slc: ddY mice (assay: Novel object recognition test in mice (mORT)). Settings: at 0.3 mg/kg, 1.0 mg/kg or 3 mg/kg.
Assay type: in vivo
Procedure: Evaluation of Cognitive Function with Mice in Novel Object Recognition Test (Hereinafter, Referred to as “mORT”)
Slc: ddY mice (25 g to 30 g, male, Japan SLC) can be used in the novel object recognition test wherein the interval between the 1st trial (training) and the 2nd trial (test) correlates with the memory loss for the objects used in the 1st trial, and a significant memory-loss is observed when the 2nd trial is performed 24 hours after the 1st trial. According to the test mechanism, the present compounds were administered prior to the 1st trial, and the enhancement effect on memory in the 2nd trial was evaluated.

In the case of `CO[C@H]1CC[C@H](NC(=O)N2CCC(n3ncc4cc(C)ccc43)CC2)CC1` [Example 1, N-(trans-4-methoxycyclohexyl)-4-(5-methyl-1H-indazol-1-yl)piperidine-1-carboxamide], the “efficacy at higher doses” value was “the efficacy did not decrease”.
For `CO[C@H]1CC[C@H](NC(=O)N2CCC(n3ncc4cc(C5CC5)ccc43)CC2)CC1` [Example 74, 4-(5-cyclopropyl-1H-indazol-1-yl)-N-(trans-4-methoxycyclohexyl)piperidine-1-carboxamide], the “efficacy at higher doses” value was “the efficacy did not decrease”.

These molecules were tested against T1, human α7 nAChR (Homo sapiens, UniProt P36544) (assay: Evaluation of PAM activity with human α7 nACh receptor stably expressing cells (aequorin luminescence, FDSS7000, ACh EC20)). Settings: test compound 10 μmol/L; ACh at EC20; ratio of RLU (Max-Min) of test-compound wells to control wells.
T1 construct: expressed in transfected cells; host or cells: GH4C1 cells (rat pituitary, ATCC CCL-82.2)
Assay type: cell-based
Text: Evaluation of PAM Activity with Human α7 nACh Receptor Stably Expressing Cells
(1) Human α7 nAChR Stably Expressing Cells
Human α7 nAChR stably expressing cells were generated and cultured. In detail, GH4C1 cells derived from rat pituitary (cat#CCL-82.2, ATCC, USA) were used as a host cell. PcDNA3.1Zeo vector containing a nucleotide sequence encoding a protein GenBank BAC81731 and pcDNA3.1 vector containing human α7 nAChR gene (cat#V790-20, invitrogen, Carlsbad, Calif., USA) were transfected to the cells to give aequorins and human α7 nAChR stably expressing cells respectively. The aequorins and human α7 nAChR stably expressing cells were screened with Zeocin (cat#R25001, invitrogen, Carlsbad, Calif., USA) and Geneticin (cat#10131-027, invitrogen, Carlsbad, Calif., USA) respectively.
The cells were cultured in F-10 Nutrient Mixture (Ham) medium (cat#11550-043, invitrogen, Carlsbad, Calif., USA) containing 2.5% fetal bovine serum (cat#2917354, ICN Biomedicals, Inc, USA), 15% inactivated horse serum (cat#26050-088, invitrogen, Carlsbad, Calif., USA), 1 μg/mL Geneticin, and 5 μg/mL Puromycin (cat#14861-84, invitrogen, Carlsbad, Calif., USA), in a Collagen Type 1-coated dish (cat#4030-010, iwaki, Tokyo, Japan). During the culture, the medium was replaced with fresh medium in every 2 to 3 days, and the cells were treated with TrypLE Express (cat#45604-021, invitrogen, Carlsbad, Calif., USA) to collect them in every 7 days. Thus, the cells were subcultured.
7 Days after subculturing, the cells were treated with TrypLE Express to collect them when they were about 80% confluent. The cells were suspended in a reaction medium containing Hanks (cat#14065-056, invitrogen, Carlsbad, Calif., USA)/20 mmol/L Hepes (cat#15630-080, invitrogen, Carlsbad, Calif., USA), Buffer (pH 7.4), F-10 Nutrient Mixture (Ham), and 0.1 mg/mL Geneticin, and the suspension was seeded in a 384-well plate (cat#781090, Greiner, Germany) at 20000 cells/25 μL per well.
On the next day after seeding, Viviren (cat#E649X, Promega, Madison, Wis., USA) was added to the medium so that the final concentration could be 4 μmol/L (15 μL/well). The plates were centrifuged and then placed in the dark for 4 hours at room temperature.
(2) Preparation of the Test Samples
Each of the test compounds was dissolved in DMSO to prepare each test sample at a concentration of 1000-fold the final concentration. To the solution was added Hanks/20 mM HEPES/0.2% BSA (cat#A3803, Sigma, St. Louis, Mo., USA), and the concentration was adjusted to 6-fold the final concentration.
(3) Evaluation of PAM Activity
FDSS7000 (Hamamatsu Photonics) was used to detect the luminescence signal evoked by α7 nAChR stimulation. The cells and a luminescent substrate were put on a plate, and the test sample was added thereto. […] After the addition of ACh, the luminescence signal (the central wavelength: 465 nm) was measured for 138 seconds to calculate RLU (Max-Min). The ratio of the RLU (Max-Min) of the test-compound-containing wells to that of the control wells was defined as PAM activity.

T1 sequence (P36544 23-502): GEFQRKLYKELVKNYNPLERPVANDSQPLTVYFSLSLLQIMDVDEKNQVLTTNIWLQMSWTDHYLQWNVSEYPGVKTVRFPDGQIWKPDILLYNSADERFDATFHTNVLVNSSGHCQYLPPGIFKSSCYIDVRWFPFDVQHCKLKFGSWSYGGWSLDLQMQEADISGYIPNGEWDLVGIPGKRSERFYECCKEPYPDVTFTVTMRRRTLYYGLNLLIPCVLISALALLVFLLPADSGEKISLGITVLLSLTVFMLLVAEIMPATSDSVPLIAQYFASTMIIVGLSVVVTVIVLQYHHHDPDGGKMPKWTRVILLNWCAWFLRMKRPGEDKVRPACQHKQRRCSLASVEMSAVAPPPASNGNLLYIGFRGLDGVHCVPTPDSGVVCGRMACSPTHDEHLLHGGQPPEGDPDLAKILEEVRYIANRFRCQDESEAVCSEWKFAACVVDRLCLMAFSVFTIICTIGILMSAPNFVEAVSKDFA

Going from `CO[C@H]1CC[C@H](NC(=O)N2CCC(n3ncc4cc(C)ccc43)CC2)CC1` [Example 1, N-(trans-4-methoxycyclohexyl)-4-(5-methyl-1H-indazol-1-yl)piperidine-1-carboxamide] to `CO[C@H]1CC[C@H](NC(=O)N2CCC(n3ncc4cc(C5CC5)ccc43)CC2)CC1` [Example 74, 4-(5-cyclopropyl-1H-indazol-1-yl)-N-(trans-4-methoxycyclohexyl)piperidine-1-carboxamide], the “α7PAM (%) @ 10 μmol/L” value rises from 1209% to 1226%.

Going from `COC(C)c1c(C)ccc2c1cnn2C1CCN(C(=O)NC2CCC(F)(F)CC2)CC1` (stereo not drawn) [Example 232] to `O=C(NC1CCC(F)(F)CC1)N1CCC(n2ncc3cc(OC4CC4)ccc32)CC1` [Example 249, 4-[5-(cyclopropoxy)-1H-indazol-1-yl]-N-(4,4-difluorocyclohexyl)piperidine-1-carboxamide], the “α7PAM (%) @ 10 μmol/L” value rises from 860% to 1463%.

Going from `CCc1ccc2c(cnn2C2CCN(C(=O)N[C@H]3CC[C@H](OC)CC3)CC2)c1OC` [Example 255, 4-(5-ethyl-4-methoxy-1H-indazol-1-yl)-N-(trans-4-methoxycyclohexyl)piperidine-1-carboxamide] to `COc1c(C(F)(F)F)ccc2c1cnn2C1CCN(C(=O)NC2CCC(OC)CC2)CC1` (stereo not drawn) [Example 317], the “α7PAM (%) @ 10 μmol/L” value falls from 1096% to 360%.

First: CCc1ccc2c(cnn2C2CCN(C(=O)NC3CCOCC3)CC2)c1OC [Example 275, 4-(5-ethyl-4-methoxy-1H-indazol-1-yl)-N-(tetrahydro-2H-pyran-4-yl)piperidine-1-carboxamide]
Second: O=C(NC1CCOCC1)N1CCC(n2ncc3c(OC(F)(F)F)cccc32)CC1 [Example 304]
The “α7PAM (%) @ 10 μmol/L” value of the first is higher: 1093% for the first, 380% for the second.

Going from `CO[C@H]1CC[C@H](NC(=O)N2CCC(n3ncc4cc(OC(F)F)ccc43)CC2)CC1` [Example 291, 4-[5-(difluoromethoxy)-1H-indazol-1-yl]-N-(trans-4-methoxycyclohexyl)piperidine-1-carboxamide] to `O=C(NC1CCOCC1)N1CCC(n2ncc3cc(C(F)(F)F)ccc32)CC1` [Example 297], the “α7PAM (%) @ 10 μmol/L” value falls from 1433% to 340%.
